Assays:
Assay type in all cases: in vivo
Septoria tritici = experiment: Protective activity against Septoria foliar blotch disease of wheat caused by Septoria tritici; conditions: wheat seedlings "Riband", inoculated 24 h after spraying, 2 weeks
Method: The active compounds were prepared separately or jointly as a 10% strength emulsion in a mixture of 70% by weight of cyclohexanone, 20% by weight of Nekanil® LN (Lutensol® AP6, wetting agent having emulsifying and dispersing action based on ethoxylated alkylphenols) and 10% by weight of Wettol® EM (nonionic emulsifier based on ethoxylated castor oil) and diluted with water to the desired concentration.
Leaves of potted wheat seedlings of the cultivar “Riband” were sprayed to runoff point with an aqueous preparation of active compound which had been prepared from a stock solution made of 10% of active compound, 85% of cyclohexanone and 5% of emulsifier. 24 hours after the spray coating had dried on, they were inoculated with an aqueous spore suspension of Septoria tritici. The suspension contained 2.0×10^6 spores/ml. The test plants were then placed in a greenhouse at 18-22° C. and a relative atmospheric humidity of close to 100%. After 2 weeks, the extent of the development of the disease was determined visually in % infection of the entire leaf area.

Pyrenophora teres = experiment: Activity against net blotch of barley caused by Pyrenophora teres; conditions: barley seedlings "Igri", inoculated 24 h after spraying, 6 days
Summary of the method: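 Disease was read as visually estimated % infection of total leaf area 6 days after inoculation (greenhouse, 20-24° C, 95-100% humidity). Seedlings of cultivar Igri had been sprayed to runoff point with diluted compound emulsion and inoculated with a P. teres spore suspension 24 h later.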

Puccinia recondita = experiment: Curative activity against brown rust of wheat caused by Puccinia recondita; conditions: curative spray 24 h after inoculation, wheat seedlings "Kanzler", 7 days
Summary of the method: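 Wheat seedlings (cv. Kanzler) inoculated with brown rust spores and held 24 h at 90–95% humidity and 20–22°C, then sprayed to runoff with the emulsified compound the next day. Rust development on leaves scored after 7 days in greenhouse at 20–22°C and 65–70% relative humidity.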

[1] = system: Blumeria graminis forma specialis tritici; experiment: Activity against mildew of wheat caused by Blumeria graminis forma specialis tritici; conditions: wheat seedlings "Kanzler", dusted with spores 24 h after spraying, 7 days
Summary of the method: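 Protective test: Blumeria graminis f. sp. tritici spores dusted onto cv. Kanzler wheat seedling leaves 24 h after spray deposit of aqueous compound preparation had dried. After 7 days in greenhouse (20-24° C., 60-90% relative humidity), infection estimated by eye as % of total leaf area.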

CC(Nc1c(-c2ccccc2Cl)c(Cl)nc2ncnn12)C(C)(C)C (single isomer, unassigned) [I.-44a]
% infection of the leaves after application of an aqueous preparation comprising . . . ppm of active compound (Septoria tritici; 16 ppm): 60% | % infection of the leaves after application of an aqueous preparation comprising . . . ppm of active compound (Septoria tritici; 63 ppm): 7% | % infection of the leaves after application of an aqueous preparation comprising . . . ppm of active compound (Septoria tritici; 250 ppm): 7% | % infection of the leaves after application of an aqueous preparation comprising . . . ppm of active compound (Pyrenophora teres; 16 ppm): 60% | % infection of the leaves after application of an aqueous preparation comprising . . . ppm of active compound (Pyrenophora teres; 63 ppm): 7% | % infection of the leaves after application of an aqueous preparation comprising . . . ppm of active compound (Puccinia recondita; 250 ppm): 60% | % infection of the leaves after application of an aqueous preparation comprising . . . ppm of active compound ([1]; 16 ppm): 50% | % infection of the leaves after application of an aqueous preparation comprising . . . ppm of active compound ([1]; 63 ppm): 30% | % infection of the leaves after application of an aqueous preparation comprising . . . ppm of active compound ([1]; 250 ppm): 30%

CC(C)C(C)Nc1c(-c2c(F)cccc2F)c(Cl)nc2ncnn12 (centres unmarked) [I.-5]
% infection of the leaves after application of an aqueous preparation comprising . . . ppm of active compound (Septoria tritici; 16 ppm): 15% | % infection of the leaves after application of an aqueous preparation comprising . . . ppm of active compound (Septoria tritici; 63 ppm): 15% | % infection of the leaves after application of an aqueous preparation comprising . . . ppm of active compound (Septoria tritici; 250 ppm): 15% | % infection of the leaves after application of an aqueous preparation comprising . . . ppm of active compound (Pyrenophora teres; 16 ppm): 20% | % infection of the leaves after application of an aqueous preparation comprising . . . ppm of active compound (Puccinia recondita; 63 ppm): 10% | % infection of the leaves after application of an aqueous preparation comprising . . . ppm of active compound (Puccinia recondita; 250 ppm): 10% | % infection of the leaves after application of an aqueous preparation comprising . . . ppm of active compound ([1]; 16 ppm): 40% | % infection of the leaves after application of an aqueous preparation comprising . . . ppm of active compound ([1]; 63 ppm): 40% | % infection of the leaves after application of an aqueous preparation comprising . . . ppm of active compound ([1]; 250 ppm): 20%

CCC(C)Nc1c(-c2c(Cl)cccc2Cl)c(Cl)nc2ncnn12 (centres unmarked) [I.-7]
% infection of the leaves after application of an aqueous preparation comprising . . . ppm of active compound (Septoria tritici; 16 ppm): 70% | % infection of the leaves after application of an aqueous preparation comprising . . . ppm of active compound (Septoria tritici; 63 ppm): 30% | % infection of the leaves after application of an aqueous preparation comprising . . . ppm of active compound (Septoria tritici; 250 ppm): 15% | % infection of the leaves after application of an aqueous preparation comprising . . . ppm of active compound (Pyrenophora teres; 16 ppm): 80% | % infection of the leaves after application of an aqueous preparation comprising . . . ppm of active compound (Pyrenophora teres; 63 ppm): 30% | % infection of the leaves after application of an aqueous preparation comprising . . . ppm of active compound (Pyrenophora teres; 250 ppm): 15% | % infection of the leaves after application of an aqueous preparation comprising . . . ppm of active compound (Puccinia recondita; 16 ppm): 40% | % infection of the leaves after application of an aqueous preparation comprising . . . ppm of active compound ([1]; 250 ppm): 60%

CC(C)C(C)Nc1c(-c2c(F)cc(F)cc2F)c(Cl)nc2ncnn12 (centres unmarked) [I.-14]
% infection of the leaves after application of an aqueous preparation comprising . . . ppm of active compound (Septoria tritici; 16 ppm): 15% | % infection of the leaves after application of an aqueous preparation comprising . . . ppm of active compound (Septoria tritici; 63 ppm): 15% | % infection of the leaves after application of an aqueous preparation comprising . . . ppm of active compound (Septoria tritici; 250 ppm): 15% | % infection of the leaves after application of an aqueous preparation comprising . . . ppm of active compound (Pyrenophora teres; 16 ppm): 3% | % infection of the leaves after application of an aqueous preparation comprising . . . ppm of active compound (Puccinia recondita; 16 ppm): 0% | % infection of the leaves after application of an aqueous preparation comprising . . . ppm of active compound (Puccinia recondita; 63 ppm): 0% | % infection of the leaves after application of an aqueous preparation comprising . . . ppm of active compound ([1]; 16 ppm): 30% | % infection of the leaves after application of an aqueous preparation comprising . . . ppm of active compound ([1]; 63 ppm): 30% | % infection of the leaves after application of an aqueous preparation comprising . . . ppm of active compound ([1]; 250 ppm): 20%

CC[C@H](C)Nc1c(-c2c(F)cccc2F)c(Cl)nc2ncnn12 [comparison (S)-amine of I.-4]
% infection of the leaves after application of an aqueous preparation comprising . . . ppm of active compound (Septoria tritici; 16 ppm): 100% | % infection of the leaves after application of an aqueous preparation comprising . . . ppm of active compound (Septoria tritici; 63 ppm): 100% | % infection of the leaves after application of an aqueous preparation comprising . . . ppm of active compound (Septoria tritici; 250 ppm): 90% | % infection of the leaves after application of an aqueous preparation comprising . . . ppm of active compound (Puccinia recondita; 16 ppm): 100% | % infection of the leaves after application of an aqueous preparation comprising . . . ppm of active compound (Puccinia recondita; 63 ppm): 100% | % infection of the leaves after application of an aqueous preparation comprising . . . ppm of active compound (Puccinia recondita; 250 ppm): 100% | % infection of the leaves after application of an aqueous preparation comprising . . . ppm of active compound ([1]; 16 ppm): 100% | % infection of the leaves after application of an aqueous preparation comprising . . . ppm of active compound ([1]; 63 ppm): 100% | % infection of the leaves after application of an aqueous preparation comprising . . . ppm of active compound ([1]; 250 ppm): 100%

CC(C)[C@H](C)Nc1c(-c2c(F)cccc2F)c(Cl)nc2ncnn12 [comparison (S)-amine of I.-5]
% infection of the leaves after application of an aqueous preparation comprising . . . ppm of active compound (Septoria tritici; 16 ppm): 100% | % infection of the leaves after application of an aqueous preparation comprising . . . ppm of active compound (Septoria tritici; 63 ppm): 100% | % infection of the leaves after application of an aqueous preparation comprising . . . ppm of active compound (Septoria tritici; 250 ppm): 100% | % infection of the leaves after application of an aqueous preparation comprising . . . ppm of active compound (Pyrenophora teres; 16 ppm): 80% | % infection of the leaves after application of an aqueous preparation comprising . . . ppm of active compound (Puccinia recondita; 63 ppm): 100% | % infection of the leaves after application of an aqueous preparation comprising . . . ppm of active compound (Puccinia recondita; 250 ppm): 100% | % infection of the leaves after application of an aqueous preparation comprising . . . ppm of active compound ([1]; 16 ppm): 100% | % infection of the leaves after application of an aqueous preparation comprising . . . ppm of active compound ([1]; 63 ppm): 100% | % infection of the leaves after application of an aqueous preparation comprising . . . ppm of active compound ([1]; 250 ppm): 100%

CC[C@H](C)Nc1c(-c2c(Cl)cccc2Cl)c(Cl)nc2ncnn12 [comparison (S)-amine of I.-7]
% infection of the leaves after application of an aqueous preparation comprising . . . ppm of active compound (Septoria tritici; 16 ppm): 90% | % infection of the leaves after application of an aqueous preparation comprising . . . ppm of active compound (Septoria tritici; 63 ppm): 90% | % infection of the leaves after application of an aqueous preparation comprising . . . ppm of active compound (Septoria tritici; 250 ppm): 90% | % infection of the leaves after application of an aqueous preparation comprising . . . ppm of active compound (Pyrenophora teres; 16 ppm): 100% | % infection of the leaves after application of an aqueous preparation comprising . . . ppm of active compound (Pyrenophora teres; 63 ppm): 100% | % infection of the leaves after application of an aqueous preparation comprising . . . ppm of active compound (Pyrenophora teres; 250 ppm): 100% | % infection of the leaves after application of an aqueous preparation comprising . . . ppm of active compound (Puccinia recondita; 16 ppm): 100% | % infection of the leaves after application of an aqueous preparation comprising . . . ppm of active compound ([1]; 250 ppm): 100%

CC(C)[C@H](C)Nc1c(-c2c(F)cc(F)cc2F)c(Cl)nc2ncnn12 [comparison (S)-amine of I.-14]
% infection of the leaves after application of an aqueous preparation comprising . . . ppm of active compound (Septoria tritici; 16 ppm): 90% | % infection of the leaves after application of an aqueous preparation comprising . . . ppm of active compound (Septoria tritici; 63 ppm): 70% | % infection of the leaves after application of an aqueous preparation comprising . . . ppm of active compound (Septoria tritici; 250 ppm): 70% | % infection of the leaves after application of an aqueous preparation comprising . . . ppm of active compound (Pyrenophora teres; 16 ppm): 40% | % infection of the leaves after application of an aqueous preparation comprising . . . ppm of active compound (Puccinia recondita; 16 ppm): 100% | % infection of the leaves after application of an aqueous preparation comprising . . . ppm of active compound (Puccinia recondita; 63 ppm): 5% | % infection of the leaves after application of an aqueous preparation comprising . . . ppm of active compound ([1]; 16 ppm): 100% | % infection of the leaves after application of an aqueous preparation comprising . . . ppm of active compound ([1]; 63 ppm): 80% | % infection of the leaves after application of an aqueous preparation comprising . . . ppm of active compound ([1]; 250 ppm): 80%

CC[C@H](C)Nc1c(-c2c(F)cc(OC)cc2F)c(Cl)nc2ncnn12 [comparison (S)-amine of I.-16]
% infection of the leaves after application of an aqueous preparation comprising . . . ppm of active compound (Septoria tritici; 63 ppm): 90% | % infection of the leaves after application of an aqueous preparation comprising . . . ppm of active compound (Septoria tritici; 250 ppm): 90% | % infection of the leaves after application of an aqueous preparation comprising . . . ppm of active compound (Puccinia recondita; 16 ppm): 100% | % infection of the leaves after application of an aqueous preparation comprising . . . ppm of active compound (Puccinia recondita; 63 ppm): 5% | % infection of the leaves after application of an aqueous preparation comprising . . . ppm of active compound ([1]; 16 ppm): 100% | % infection of the leaves after application of an aqueous preparation comprising . . . ppm of active compound ([1]; 63 ppm): 100% | % infection of the leaves after application of an aqueous preparation comprising . . . ppm of active compound ([1]; 250 ppm): 100%

CC(Nc1c(-c2ccccc2Cl)c(Cl)nc2ncnn12)C(C)(C)C [comparison (S)-amine of I.-44a]
% infection of the leaves after application of an aqueous preparation comprising . . . ppm of active compound (Septoria tritici; 16 ppm): 100% | % infection of the leaves after application of an aqueous preparation comprising . . . ppm of active compound (Septoria tritici; 63 ppm): 100% | % infection of the leaves after application of an aqueous preparation comprising . . . ppm of active compound (Septoria tritici; 250 ppm): 100% | % infection of the leaves after application of an aqueous preparation comprising . . . ppm of active compound (Pyrenophora teres; 16 ppm): 100% | % infection of the leaves after application of an aqueous preparation comprising . . . ppm of active compound (Pyrenophora teres; 63 ppm): 30% | % infection of the leaves after application of an aqueous preparation comprising . . . ppm of active compound (Puccinia recondita; 250 ppm): 100% | % infection of the leaves after application of an aqueous preparation comprising . . . ppm of active compound ([1]; 16 ppm): 100% | % infection of the leaves after application of an aqueous preparation comprising . . . ppm of active compound ([1]; 63 ppm): 100% | % infection of the leaves after application of an aqueous preparation comprising . . . ppm of active compound ([1]; 250 ppm): 100%

Source: patent US20040110771A1, “7-(r)-aminotriazolopyrimidines, the production thereof and use of the same for combatting phytopathogenic fungi” (priority 2000, published 2004)
